Holding throughout (type): functional
Test [1] relates to Escherichia coli. Kind of test: Antibacterial activity against wild type Escherichia coli DK/pKK3535.
The subject of test [2] is Escherichia coli. The test can be described thus: Antibacterial activity against Escherichia coli SQ171/2058G harboring ribosomal A2058G mutant.
Test [3] relates to Escherichia coli. The test can be described thus: Antibacterial activity against Escherichia coli DK/2058G harboring ribosomal A2058G mutant.
Test [4] relates to Staphylococcus aureus. The test can be described thus: Antibacterial activity against Staphylococcus aureus UCN14 harboring ribosomal […] mutant.
The subject of test [5] is Staphylococcus aureus. Kind of test: Antibacterial activity against Staphylococcus aureus ATCC 33591 harboring ermA mutant.

SMILES strings stand for the structures. In brackets after ≈: the same amount, converted by molar mass.

Broadly, the MIC is the smallest concentration in the dilution series that meets the test's criterion for growth inhibition. Low values mean a more susceptible organism, high ones a less susceptible organism.

As for `CC[C@H]1OC(=O)[C@H](C)C(=O)C[C@@H](O[C@@H]2O[C@H](C)C[C@H](N(C)C)[C@H]2O)[C@@](C)(OC)CCC(=O)C[C@@H]2N(CCCCn3cnc(-c4cccnc4)c3)C(=O)O[C@@]21C`, in the test on Escherichia coli [1], the MIC was 32 µg/mL (≈ 41.6 µM).

Take `CC[C@H]1OC(=O)[C@H](C)C(=O)[C@H](C)[C@@H](O[C@@H]2O[C@H](C)C[C@H](N(C)C)[C@H]2O)[C@](C)(OC)C[C@@H](C)C(=O)[C@H](C)[C@H]2N(CCCCn3cnc(-c4cccnc4)c3)C(=O)O[C@]12C` [TELITHROMYCIN]: the MIC against Escherichia coli [2] was above 512 µg/mL; with Escherichia coli [1] it was 0.5 µg/mL (≈ 0.616 µM); against Escherichia coli [3], 1 µg/mL (≈ 1.23 µM); in the test with Staphylococcus aureus [4], above 256 µg/mL; against Staphylococcus aureus [5] it was above 128 µg/mL.

The values above are taken from ChEMBL document CHEMBL1649101, “Desmethyl Macrolide Analogues to Address Antibiotic Resistance: Total Synthesis and Biological Evaluation of 4,8,10-Tridesmethyl Telithromycin” (2011).
